According to paper PMC10239507, “Development of allosteric and selective CDK2 inhibitors for contraception with negative cooperativity to cyclin binding” (Nature Communications, 2023):

Tests used:
Assay in all cases: biochemical
[1] = molecular target: T1, 371 kinases (kinase named in each endpoint) (Homo sapiens, UniProt P37173); details: TGFBR2
T1 construct: purchased Reaction Biology

[2] = molecular target: T2, 371 kinases (kinase named in each endpoint) (Homo sapiens, UniProt P48729); details: CK1A1
T2 construct: purchased Reaction Biology

[3] = molecular target: T3, 371 kinases (kinase named in each endpoint) (Homo sapiens, UniProt P50613); details: CDK7/CYCLIN H
T3 construct: purchased Reaction Biology

[4] = molecular target: T4, 371 kinases (kinase named in each endpoint) (Homo sapiens, UniProt Q05655); details: PKCD
T4 construct: purchased Reaction Biology

[5] = molecular target: T5, 371 kinases (kinase named in each endpoint) (Homo sapiens, UniProt Q8TD08); details: ERK7/MAPK15
T5 construct: purchased Reaction Biology

[6] = molecular target: T6, 371 kinases (kinase named in each endpoint) (Homo sapiens, UniProt Q9BYP7); details: WNK3
T6 construct: purchased Reaction Biology

[7] = molecular target: T7, 371 kinases (kinase named in each endpoint) (Homo sapiens, UniProt Q9NQU5); details: PAK6
T7 construct: purchased Reaction Biology

[8] = molecular target: T8, 371 kinases (kinase named in each endpoint) (Homo sapiens, UniProt Q9UL54); details: TAOK2/TAO1
T8 construct: purchased Reaction Biology
T8 sequence (Q9UL54 whole entry): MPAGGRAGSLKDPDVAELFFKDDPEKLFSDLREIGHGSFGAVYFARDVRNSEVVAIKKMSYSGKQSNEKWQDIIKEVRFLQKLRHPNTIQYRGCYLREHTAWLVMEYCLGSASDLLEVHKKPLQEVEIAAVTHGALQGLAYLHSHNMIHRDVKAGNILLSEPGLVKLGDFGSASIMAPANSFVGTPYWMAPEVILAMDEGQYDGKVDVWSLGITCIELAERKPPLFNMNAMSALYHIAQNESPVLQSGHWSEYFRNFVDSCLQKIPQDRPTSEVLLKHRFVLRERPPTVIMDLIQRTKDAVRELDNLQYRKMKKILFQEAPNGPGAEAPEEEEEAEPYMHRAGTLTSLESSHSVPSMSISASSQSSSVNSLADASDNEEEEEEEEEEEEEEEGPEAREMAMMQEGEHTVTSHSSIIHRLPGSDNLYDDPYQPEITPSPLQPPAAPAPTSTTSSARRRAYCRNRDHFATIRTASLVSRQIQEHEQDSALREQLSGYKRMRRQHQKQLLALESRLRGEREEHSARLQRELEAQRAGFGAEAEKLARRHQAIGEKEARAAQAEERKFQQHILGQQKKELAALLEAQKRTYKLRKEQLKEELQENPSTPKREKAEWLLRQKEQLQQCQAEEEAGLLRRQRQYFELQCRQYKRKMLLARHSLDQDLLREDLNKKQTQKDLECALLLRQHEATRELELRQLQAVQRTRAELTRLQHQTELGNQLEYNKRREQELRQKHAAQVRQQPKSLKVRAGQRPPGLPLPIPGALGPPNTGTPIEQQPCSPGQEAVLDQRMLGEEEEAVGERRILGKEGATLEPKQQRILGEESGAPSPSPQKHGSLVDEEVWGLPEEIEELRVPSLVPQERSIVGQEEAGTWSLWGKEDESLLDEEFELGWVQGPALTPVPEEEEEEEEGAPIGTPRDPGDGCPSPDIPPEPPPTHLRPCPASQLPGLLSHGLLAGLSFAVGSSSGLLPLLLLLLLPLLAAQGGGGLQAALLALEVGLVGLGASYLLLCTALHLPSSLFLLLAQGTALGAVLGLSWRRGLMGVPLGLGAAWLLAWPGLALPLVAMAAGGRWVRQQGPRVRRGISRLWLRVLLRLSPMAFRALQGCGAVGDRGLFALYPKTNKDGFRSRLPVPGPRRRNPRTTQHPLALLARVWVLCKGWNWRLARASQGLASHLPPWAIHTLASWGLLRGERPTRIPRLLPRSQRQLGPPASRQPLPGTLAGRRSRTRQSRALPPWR

T7 sequence (Q9NQU5 whole entry): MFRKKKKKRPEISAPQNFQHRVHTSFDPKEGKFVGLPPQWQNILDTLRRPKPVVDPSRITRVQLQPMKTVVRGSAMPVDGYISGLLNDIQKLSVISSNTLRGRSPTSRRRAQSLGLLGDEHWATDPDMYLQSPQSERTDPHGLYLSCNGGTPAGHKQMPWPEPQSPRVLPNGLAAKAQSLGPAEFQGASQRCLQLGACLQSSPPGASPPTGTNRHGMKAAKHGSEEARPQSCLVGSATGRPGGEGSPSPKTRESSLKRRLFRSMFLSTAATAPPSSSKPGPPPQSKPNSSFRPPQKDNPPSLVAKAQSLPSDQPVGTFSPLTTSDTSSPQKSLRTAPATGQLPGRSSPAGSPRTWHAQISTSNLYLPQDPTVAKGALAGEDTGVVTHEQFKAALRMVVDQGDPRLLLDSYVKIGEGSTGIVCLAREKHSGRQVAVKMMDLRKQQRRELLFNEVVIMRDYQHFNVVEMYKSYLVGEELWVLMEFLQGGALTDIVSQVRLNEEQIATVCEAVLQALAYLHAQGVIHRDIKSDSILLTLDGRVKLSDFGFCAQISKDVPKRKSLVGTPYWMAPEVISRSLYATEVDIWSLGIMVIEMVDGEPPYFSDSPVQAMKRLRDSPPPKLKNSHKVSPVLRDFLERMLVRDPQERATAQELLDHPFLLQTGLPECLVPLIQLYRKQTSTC
T5 sequence (Q8TD08 whole entry): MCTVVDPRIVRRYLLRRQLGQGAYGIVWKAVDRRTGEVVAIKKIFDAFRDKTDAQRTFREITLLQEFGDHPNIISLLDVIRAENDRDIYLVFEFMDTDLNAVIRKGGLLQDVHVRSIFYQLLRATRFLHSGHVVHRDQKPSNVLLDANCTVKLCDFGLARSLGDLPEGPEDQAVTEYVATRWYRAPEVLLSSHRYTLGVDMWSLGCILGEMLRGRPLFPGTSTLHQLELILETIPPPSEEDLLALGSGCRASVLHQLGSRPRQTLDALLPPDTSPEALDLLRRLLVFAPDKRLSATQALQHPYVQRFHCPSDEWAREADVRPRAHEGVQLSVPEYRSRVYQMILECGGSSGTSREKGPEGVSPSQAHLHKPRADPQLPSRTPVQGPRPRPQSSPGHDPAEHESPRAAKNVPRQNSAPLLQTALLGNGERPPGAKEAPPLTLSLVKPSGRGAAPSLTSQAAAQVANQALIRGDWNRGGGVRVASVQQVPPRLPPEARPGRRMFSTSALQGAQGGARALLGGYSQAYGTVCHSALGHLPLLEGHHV
T3 sequence (P50613 whole entry): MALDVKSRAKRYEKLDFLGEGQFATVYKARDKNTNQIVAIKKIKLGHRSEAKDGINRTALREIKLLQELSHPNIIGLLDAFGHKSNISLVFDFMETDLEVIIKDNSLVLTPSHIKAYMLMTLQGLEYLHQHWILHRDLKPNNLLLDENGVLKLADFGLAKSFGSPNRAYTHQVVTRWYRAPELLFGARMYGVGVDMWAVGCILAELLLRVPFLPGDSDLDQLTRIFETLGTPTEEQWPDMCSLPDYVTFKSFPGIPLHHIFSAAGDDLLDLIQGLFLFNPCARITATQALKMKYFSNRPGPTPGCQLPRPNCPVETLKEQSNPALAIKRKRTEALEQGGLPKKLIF
T2 sequence (P48729 whole entry): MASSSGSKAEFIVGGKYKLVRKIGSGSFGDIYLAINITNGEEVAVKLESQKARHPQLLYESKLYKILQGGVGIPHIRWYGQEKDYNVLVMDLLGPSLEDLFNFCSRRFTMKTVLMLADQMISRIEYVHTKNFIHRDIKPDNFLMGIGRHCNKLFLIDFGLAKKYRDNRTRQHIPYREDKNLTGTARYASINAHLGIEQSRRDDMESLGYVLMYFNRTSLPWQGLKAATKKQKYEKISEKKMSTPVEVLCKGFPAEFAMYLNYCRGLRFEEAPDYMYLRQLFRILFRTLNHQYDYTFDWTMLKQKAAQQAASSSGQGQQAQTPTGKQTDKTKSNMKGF
T4 sequence (Q05655 whole entry): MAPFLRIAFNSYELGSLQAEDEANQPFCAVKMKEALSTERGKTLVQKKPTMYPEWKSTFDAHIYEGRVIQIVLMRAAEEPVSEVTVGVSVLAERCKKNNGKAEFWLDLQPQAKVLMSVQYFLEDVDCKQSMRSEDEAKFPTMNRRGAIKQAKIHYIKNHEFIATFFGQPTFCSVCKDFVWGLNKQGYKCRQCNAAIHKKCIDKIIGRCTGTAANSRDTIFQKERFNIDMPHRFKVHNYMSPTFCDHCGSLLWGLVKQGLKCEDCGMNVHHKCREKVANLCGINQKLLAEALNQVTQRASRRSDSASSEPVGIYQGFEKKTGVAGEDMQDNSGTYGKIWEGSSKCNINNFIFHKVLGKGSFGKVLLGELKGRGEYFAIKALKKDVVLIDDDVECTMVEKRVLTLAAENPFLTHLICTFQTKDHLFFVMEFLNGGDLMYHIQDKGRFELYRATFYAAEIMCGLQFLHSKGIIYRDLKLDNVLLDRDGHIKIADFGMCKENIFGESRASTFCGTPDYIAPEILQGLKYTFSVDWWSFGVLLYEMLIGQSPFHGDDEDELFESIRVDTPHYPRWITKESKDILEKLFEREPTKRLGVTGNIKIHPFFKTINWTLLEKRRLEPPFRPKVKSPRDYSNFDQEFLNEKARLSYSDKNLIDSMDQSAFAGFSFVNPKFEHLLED
T1 sequence (P37173 23-567): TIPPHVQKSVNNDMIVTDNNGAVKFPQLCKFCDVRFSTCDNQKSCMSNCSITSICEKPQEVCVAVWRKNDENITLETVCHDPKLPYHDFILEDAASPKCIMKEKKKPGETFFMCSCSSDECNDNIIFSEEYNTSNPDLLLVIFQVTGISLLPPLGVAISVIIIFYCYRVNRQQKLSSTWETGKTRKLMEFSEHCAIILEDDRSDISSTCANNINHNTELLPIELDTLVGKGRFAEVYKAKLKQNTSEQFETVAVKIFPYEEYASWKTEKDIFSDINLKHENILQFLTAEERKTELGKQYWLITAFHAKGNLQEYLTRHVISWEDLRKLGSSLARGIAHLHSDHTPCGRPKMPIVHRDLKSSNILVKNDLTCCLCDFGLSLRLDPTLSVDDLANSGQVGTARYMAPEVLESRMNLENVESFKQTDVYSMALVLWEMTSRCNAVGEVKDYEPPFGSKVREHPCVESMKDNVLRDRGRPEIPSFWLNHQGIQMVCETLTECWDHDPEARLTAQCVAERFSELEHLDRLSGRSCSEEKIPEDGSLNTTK

O=C(O)c1cc(C(F)(F)F)ccc1NCCc1c[nH]c2cc(Br)ccc12 [Compound 5, 2-((2-(6-Bromo-1H-indol-3-yl)ethyl)amino)−5-(trifluoromethyl)benzoic Acid]
activity at 10 µM [1]: 79.2 ± 1.5%
activity at 10 µM [2]: 91.2 ± 0.3%
activity at 10 µM [3]: 104 ± 3.6%
activity at 10 µM [4]: 54.7 ± 2.7%
activity at 10 µM [5]: 136 ± 6.1%
activity at 10 µM [6]: 100.7 ± 0.4%
activity at 10 µM [7]: 244 ± 9%
activity at 10 µM [8]: 100.9 ± 0.2%
